Values after ≈ are worked out from the molar mass of the structure shown.
Columns and labels:
[1] = tested on: Kasumi-1 transplanted tumor of leukemia; assay: Inhibition of transplanted tumor of leukemia in NOD/SCID mice; type: in vivo; settings: for Mass of tumor / Tumor Inhibition rate (%): Kasumi-1 in NOD/SCID mice, three times a day, 10 days, Day 31
Protocol: Leukemia cell lines: Kasumi-1 (acute myeloid leukemia M2 type, AML-M2)
Animal: NOD/SCID mice (multiple immunodeficiency mice), 8 weeks, female, purchased from Shanghai Laboratory Animal Center of Chinese Academy of Sciences, China.
BS-HH-002, wherein BS-HH-002-0.1 indicates a dosage of 0.1 mg/kg each time, and BS-HH-002-0.3 indicates a dosage of 0.3 mg/kg each time.
Under sterile conditions, the above tumor cells in the logarithmic growth phase are collected and injected in an amount of 5×10^7/0.2 ml/mice (cell viability>95%) by subcutaneous injection into the right subaxillary of NOD/SCID mice, thus establishing an NOD/SCID mice model bearing transplanted tumor of leukemia. The mice are administered on the third day after the inoculation, wherein the experimental groups are intragastrically administered in an experimentally designed amount and the negative control group is intragastrically administered with sterile water. Each mouse is intragastrically administered three times a day in 0.4 ml each time, at 8:00, 14:00 and 20:00 with 6-hour intervals, and is successively administered for 10 days. The day before administration is Day 0 and the weight and tumor size are determined approximately every 5 days to produce a dynamic plot on weight and tumor growth. On Day 31, the mice are dissected and the tumors are taken out and weighed. The tumor inhibition rate (%) after the application of medicament is determined based on the tumor inhibition rate of the control group being zero.
(§1) The values determined are presented as mean±standard error (M±SD). The experimental data for each group are analyzed by the One-way ANOVA method of SPSS 18.0 Statistical Software, and p<0.05 is deemed as having statistically significant difference.

[2] = tested on: Kasumi-1 (acute myeloid leukemia M2 type, AML-M2); assay: MTT growth inhibition of leukemia cells, 72 h; type: cell-based, human
Method in brief: (§2)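 Seed 6000 cells/well (1640, 10% FBS); add compound at several concentrations, mix; incubate 72 h, 37 °C, 5% CO2; MTT read; % viability vs untreated control; IC50 at 72 h.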

[3] = tested on: K562/adr (drug-resistant, chronic myeloid leukemia, CML); assay: MTT growth inhibition of leukemia cells, 72 h; type: cell-based, human
Method in brief: as §2

[4] = tested on: H9 (acute lymphoblastic leukemia, ALL); assay: MTT growth inhibition of leukemia cells, 72 h; type: cell-based, human
Method in brief: as §2

[5] = tested on: Jurkat (acute lymphoblastic leukemia, ALL); assay: MTT growth inhibition of leukemia cells, 72 h; type: cell-based, human; settings: Homo sapiens, Jurkat
Method in brief: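 Jurkat human acute lymphoblastic leukemia cells were seeded at 6000 cells per well in 96-well plates containing 1640 medium with 10% fetal bovine serum. Test compounds were added across a range of concentrations, and plates were held at 37° C. in 5% CO2 for 72 hours before viable cells were quantified by MTT.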

[6] = tested on: NB4 (acute promyelocytic leukemia, AML); assay: MTT growth inhibition of leukemia cells, 72 h; type: cell-based, human
Method in brief: as §2

[7] = tested on: MGC-803 transplanted tumor of gastric cancer; assay: Inhibition of transplanted tumor of gastric cancer in BALB/c-nu nude mice; type: in vivo; settings: for Mass of tumor / Tumor Inhibition rate (%): MGC-803 in BALB/c-nu nude mice, 10 days, Day 27
Protocol: Gastric cancer cell lines: MGC-803
Animal: BALB/c-nu nude mice, 8 weeks, female, purchased from Shanghai Laboratory Animal Center of Chinese Academy of Sciences, China.
BS-HH-002, wherein BS-HH-002-0.1 indicates a dosage of 0.1 mg/kg each time, BS-HH-002-0.3 indicates a dosage of 0.3 mg/kg each time, BS-HH-002-0.5 indicates a dosage of 0.5 mg/kg each time, and BS-HH-002-1.0 indicates a dosage of 1.0 mg/kg each time.
Under sterile conditions, the above tumor cells in logarithmic growth phase are collected and injected in an amount of 2×10^7/0.2 ml/nude mice (cell viability>95%) into the right subaxillary of the nude mice by subcutaneous injection, thus establishing a BALB/c-nu nude mice model bearing transplanted tumor of gastric cancer. The mice are administered on the third day after the inoculation, wherein the experimental groups are intragastrically administered in an experimentally designed amount, and the negative control group is intragastrically administered with sterile water. Administration takes place at 8:00 for one time a day, at 8:00 and 14:00 for twice a day, and at 8:00, 14:00 and 20:00 with 6-hour intervals for three times day. The administrations are successive for 10 days. The day before administration is Day 0 and the weight and tumor size are determined approximately every 5 days to produce a plot on weight and tumor growth. On Day 27, the mice are dissected and the tumors are taken out and weighed. Based on a tumor inhibition rate of zero for the control group, the tumor inhibition rate (%) after the effect of the medicament is calculated.
as §1

[8] = tested on: RPMI8226 (multiple myeloma); assay: MTT growth inhibition of multiple myeloma cells, 72 h; type: cell-based, human
Method in brief: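 RPMI8226 cells (6000/well) in 1640 medium with 10% FBS were exposed to graded compound concentrations for 72 h at 37 °C, 5% CO2. Viable cells were read by MTT, normalised to untreated control as 100% viability, and 72 h IC50 calculated.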

[9] = 0.1 mg/kg/time, 1 time/day intragastric
[10] = 0.1 mg/kg/time, 2 times/day intragastric
[11] = 0.1 mg/kg/time, 3 times/day intragastric
[12] = 0.3 mg/kg/time, 1 time/day intragastric
[13] = 0.5 mg/kg/time, 1 time/day intragastric
[14] = 0.5 mg/kg/time, 2 times/day intragastric
[15] = 0.5 mg/kg/time, 3 times/day intragastric
[16] = 1.0 mg/kg/time, 1 time/day intragastric
[17] = 1.0 mg/kg/time, 3 times/day intragastric

COC(=O)C[C@](O)(CCCC(C)(C)OC(C)=O)C(=O)O[C@@H]1C(OC)=C[C@]23CCCN2CCc2cc4c(cc2[C@H]13)OCO4 [BS-HH-002, 6-acetylhomoharringtonine]
Mass of tumor ([1]; 0.1 mg/kg/time intragastric): 1.67 ± 0.36 g
Tumor Inhibition rate (%) ([1]; 0.1 mg/kg/time intragastric): 43.31%
Mass of tumor ([1]; 0.3 mg/kg/time intragastric): 1.60 ± 0.75 g
Tumor Inhibition rate (%) ([1]; 0.3 mg/kg/time intragastric): 45.74%
tumor inhibition effect on transplanted tumor of leukemia ([1]; NOD/SCID mice, FIG. 5 tumor growth curve): remarkable tumor inhibition effect
effect on weight of the transplanted tumor of leukemia ([1]; NOD/SCID mice, FIG. 6): substantially reduced
inhibition rate of transplanted tumor of leukemia ([1]; NOD/SCID mice, dosage of both 0.1 and 0.3 mg/kg): over 40%
IC50 ([2]; Homo sapiens, Kasumi 1, MTT): 2 ng/mL (≈ 0.0034 µM)
IC90 ([2]; Homo sapiens, Kasumi 1, MTT): 7 ng/mL (≈ 0.0119 µM)
improvement of anti-Kasumi-1 activity compared with homoharringtonine ([2]; vs HHT): more than 3.4 fold
IC50 ([3]; Homo sapiens, K562/Adr, MTT): 15 ng/mL (≈ 0.0255 µM)
IC90 ([3]; Homo sapiens, K562/Adr, MTT): 310 ng/mL (≈ 0.528 µM)
improvement of anti-K562/adr activity compared with homoharringtonine ([3]; vs HHT): more than 3.2 fold
IC50 ([4]; Homo sapiens, MTT): 4 ng/mL (≈ 0.00681 µM)
IC90 ([4]; Homo sapiens, MTT): 10 ng/mL (≈ 0.017 µM)
improvement of anti-H9 activity compared with homoharringtonine ([4]; vs HHT): more than 5 fold
IC50 [5]: 3 ng/mL (≈ 0.0051 µM)
IC90 [5]: ≥ 16000 ng/mL
IC50 ([6]; Homo sapiens, MTT): 2 ng/mL (≈ 0.0034 µM)
IC90 ([6]; Homo sapiens, MTT): 6 ng/mL (≈ 0.0102 µM)
improvement of anti-NB4 activity compared with homoharringtonine ([6]; vs HHT): more than 3 fold
tumor inhibition rate on gastric cancer ([7]; BALB/c-nu nude mice, all dosing regimes 0.1-1.0 mg/kg): more than 40%
Mass of tumor [7, 9]: 0.40 ± 0.18 g
Tumor Inhibition rate (%) [7, 9]: 48.97%
Mass of tumor [7, 10]: 0.46 ± 0.11 g
Tumor Inhibition rate (%) [7, 10]: 40.90%
Mass of tumor [7, 11]: 0.41 ± 0.09 g
Tumor Inhibition rate (%) [7, 11]: 48.14%
Mass of tumor [7, 12]: 0.38 ± 0.13 g
Tumor Inhibition rate (%) [7, 12]: 51.76%
Mass of tumor [7, 13]: 0.44 ± 0.13 g
Tumor Inhibition rate (%) [7, 13]: 43.81%
Mass of tumor [7, 14]: 0.44 ± 0.18 g
Tumor Inhibition rate (%) [7, 14]: 43.43%
Mass of tumor [7, 15]: 0.37 ± 0.18 g
Tumor Inhibition rate (%) [7, 15]: 52.12%
Mass of tumor [7, 16]: 0.43 ± 0.17 g
Tumor Inhibition rate (%) [7, 16]: 44.58%
Mass of tumor [7, 17]: 0.34 ± 0.05 g
Tumor Inhibition rate (%) [7, 17]: 56.67%
anti-RPMI8226 (multiple myeloma) effectiveness [8]: particularly effective
IC50 ([8]; Homo sapiens, RPMI-8226, MTT): 3 ng/mL (≈ 0.0051 µM)
IC90 ([8]; Homo sapiens, RPMI-8226, MTT): 18 ng/mL (≈ 0.0306 µM)

From patent US9428519B2, “Acylated derivative of homoharringtonine, preparation method therefor, and application thereof” (HANGZHOU BENSHENG PHARMACEUTICAL CO., LTD., priority 2011, dated 2016)
